Converted amounts (≈) assume the structure as drawn. Where two headings read alike, the source gives them in different places. Positions of bridges follow the written chain, without caps; N, C: chain ends. Non-standard residues stand in square brackets, D forms with d. Residues, ends and D or L forms follow the SMILES beside them. *: point of attachment. CH2CH2OBz(4-tBu) = CC(C)(C)c1ccc(C(=O)OCC*)cc1; Ethyl(2-OPiv) = CC(C)(C)C(=O)OCC*; Ethyl(2-OBz) = O=C(OCC*)c1ccccc1; Dab = NCC[C@H](N)C(=O)O; X6 = CCC(C)(C)C(=O)OCC*; X12 = O=C(OCC*)C1CCC1; Butyryl = CCCC(=O)*; X1 = CCCCCC(=O)OCC*
Columns and labels:
[1] = system: K. pneumoniae ATCC MS6671; format: cell-based, Klebsiella pneumoniae
Source text: (§1) All 81 compounds prepared in Examples 2 and 3 underwent screening against a panel of Gram-negative bacterium to assess their ability to inhibit bacterial growth. […] The median value is presented.

[2] = system: K. pneumoniae ATCC 700603; format: cell-based, Klebsiella pneumoniae
Source text: as §1

[3] = system: K. pneumoniae ATCC 33495; format: cell-based, Klebsiella pneumoniae
Source text: as §1

[4] = system: E. coli ATCC 25922; format: cell-based, Escherichia coli
Source text: as §1

[5] = system: P. aeruginosa ATCC 27853; format: cell-based, Pseudomonas aeruginosa
Source text: as §1

[6] = system: E. coli ATCC MS8345; format: cell-based, Escherichia coli
Source text: as §1
Expansion of the polymyxin macrocycle by substituting […]) offered little advantage in antimicrobial activity but was generally well tolerated although for A. baumanni and P. aeruginosa this was detrimental.

[7] = system: A. baumannii ATCC 19606; format: cell-based, Acinetobacter baumannii
Source text: as §1

[8] = system: kidney organoids derived from human induced pluripotent stem cells; test: Nephrotoxicity on kidney organoids, renal tubule deterioration by bright field imaging; format: cell-based; conditions: scored after 48 h; further: key: 1 = unaffected; 2 = mild deterioration; 3 = severe deterioration; 4 = complete deterioration
Experimental: Selected polymyxin analogues were evaluated for cytotoxicity in physiologically relevant human kidney tissue, using kidney organoids derived from human induced pluripotent stem cells (Soo et al. 2018). Monolipidated analogues 29, 31, 33, containing a propyl, decyl or phenyl lipid, dilapidated compounds, 35, 38, 39, containing a propyl, tert-butyl or phenyl, lipid, respectively and the N-capped, di-lipidated (phenyl) 49 were selected.
The control compound polymyxin B and the seven ClipPA analogues were tested by adding a range of concentrations (based on Gallado-Godoy et al. 2016) to the organoids at day 12 of the protocol, shown previously to correspond to optimal maturity of the organoid tissues.
Toxicity was scored after 48 h for signs of renal tubule deterioration visible by bright field imaging (not shown).

[9] = colistin-resistant strain, median of triplicate

Row | Structure (SMILES) | MIC K. pneumoniae ATCC MS6671 ([1]; median of triplicate) [µg/mL] | MIC K. pneumoniae ATCC 700603 ([2]; median of triplicate) [µg/mL] | MIC K. pneumoniae ATCC 33495 ([3]; median of triplicate) [µg/mL] | MIC E. coli ATCC 25922 ([4]; median of triplicate) [µg/mL] | MIC P. aeruginosa ATCC 27853 ([5]; median of triplicate) [µg/mL] | MIC E. coli ATCC MS8345 [6, 9] [µg/mL] | MIC A. baumannii ATCC 19606 ([7]; median of triplicate) [µg/mL] | Score (nephrotoxicity on kidney organoids) ([8]; 100 μM) | Score (nephrotoxicity on kidney organoids) ([8]; 300 μM) | Score (nephrotoxicity on kidney organoids) ([8]; 1 mM) | MIC K. pneumoniae ATCC MS6671 ([1]; ATCC MS6671) [µg/mL] | MIC K. pneumoniae ATCC 700603 ([2]; ATCC 700603) [µg/mL] | MIC K. pneumoniae ATCC 33495 ([3]; ATCC 33495) [µg/mL] | MIC E. coli ATCC 25922 ([4]; ATCC 25922) [µg/mL] | MIC P. aeruginosa ATCC 27853 ([5]; ATCC 27853) [µg/mL] | MIC E. coli ATCC MS8345 ([6]; ATCC MS8345) [µg/mL] | MIC A. baumannii ATCC 19606 ([7]; ATCC 19606) [µg/mL]
1 | CC(C)C[C@@H]1NC(=O)[C@@H](Cc2ccccc2)NC(=O)[C@H](CCN)NC(=O)[C@@H](NC(=O)[C@H](CCN)NC(=O)[C@@H](NC(=O)[C@H](CCN)NC(=O)[C@@H](N)CSCCOC(=O)c2ccccc2)[C@@H](C)O)CCNC(=O)[C@H]([C@@H](C)O)NC(=O)[C@H](CCN)NC(=O)[C@H](CCN)NC1=O [Compound 33] (H-C(Ethyl(2-OBz))[Dab]T[Dab][Dab][Dab][dF]L[Dab][Dab]T; lactam 5-C) | >32 | 0.25 (≈ 0.19 µM) | 0.0625 (≈ 0.0475 µM) | 0.25 (≈ 0.19 µM) | 0.5 (≈ 0.38 µM) | 2 (≈ 1.52 µM) | 0.5 (≈ 0.38 µM) | 1 | 3 | 4 | – | – | – | – | – | – | –
2 | CC(=O)N[C@@H](CSCCOC(=O)c1ccccc1)C(=O)N[C@@H](CCN)C(=O)N[C@H](C(=O)N[C@@H](CCN)C(=O)N[C@H]1CCNC(=O)[C@H]([C@@H](C)O)NC(=O)[C@H](CCN)NC(=O)[C@H](CCN)NC(=O)[C@H](CSCCOC(=O)c2ccccc2)NC(=O)[C@@H](Cc2ccccc2)NC(=O)[C@H](CCN)NC1=O)[C@@H](C)O [Compound 49] (Ac-C(Ethyl(2-OBz))[Dab]T[Dab][Dab][Dab][dF]C(Ethyl(2-OBz))[Dab][Dab]T; lactam 5-C) | >32 | 0.5 (≈ 0.335 µM) | 0.5 (≈ 0.335 µM) | 0.5 (≈ 0.335 µM) | 1 (≈ 0.669 µM) | 16 (≈ 10.7 µM) | 1 to 2 | 3 | 3 | 4 | – | – | – | – | – | – | –
3 | CCCCCC(=O)OCCSC[C@@H](N)C(=O)N[C@H](C(=O)N[C@@H](CCN)C(=O)N[C@H]1CCNC(=O)[C@H]([C@@H](C)O)NC(=O)[C@H](CCN)NC(=O)[C@H](CCN)NC(=O)[C@H](CC(C)C)NC(=O)[C@@H](Cc2ccccc2)NC(=O)[C@H](CCN)NC1=O)[C@@H](C)O [Compound 91] (H-[dC](X1)T[Dab][Dab][Dab][dF]L[Dab][Dab]T; lactam 4-C) | – | – | – | – | – | – | – | – | – | – | >32 | 2 (≈ 1.65 µM) | 1 (≈ 0.827 µM) | 1 (≈ 0.827 µM) | 2 (≈ 1.65 µM) | 16 (≈ 13.2 µM) | 4 (≈ 3.31 µM)
4 | CCC(C)(C)C(=O)OCCSC[C@@H](N)C(=O)N[C@H](C(=O)N[C@@H](CCN)C(=O)N[C@H]1CCNC(=O)[C@H]([C@@H](C)O)NC(=O)[C@H](CCN)NC(=O)[C@H](CCN)NC(=O)[C@H](CC(C)C)NC(=O)[C@@H](Cc2ccccc2)NC(=O)[C@H](CCN)NC1=O)[C@@H](C)O [Compound 99] (H-[dC](X6)T[Dab][Dab][Dab][dF]L[Dab][Dab]T; lactam 4-C) | – | – | – | – | – | – | – | – | – | – | >32 | 2 (≈ 1.65 µM) | 2 (≈ 1.65 µM) | 2 (≈ 1.65 µM) | 4 (≈ 3.31 µM) | >32 | 4 (≈ 3.31 µM)
5 | C[C@@H](O)[C@@H]1NC(=O)[C@H](CCN)NC(=O)[C@H](CCN)NC(=O)[C@H](CSCCOC(=O)c2ccccc2)NC(=O)[C@@H](Cc2ccccc2)NC(=O)[C@H](CCN)NC(=O)[C@@H](NC(=O)[C@H](CCN)NC(=O)[C@@H](NC(=O)[C@H](CCN)NC(=O)[C@@H](N)CSCCOC(=O)C(C)(C)C)[C@@H](C)O)CCNC1=O [Compound 46] (H-C(Ethyl(2-OPiv))[Dab]T[Dab][Dab][Dab][dF]C(Ethyl(2-OBz))[Dab][Dab]T; lactam 5-C) | >32 | 1 to 2 | 2 (≈ 1.4 µM) | 2 to 4 | 16 (≈ 11.2 µM) | – | 16 (≈ 11.2 µM) | 1 | 3 | 4 | – | – | – | – | – | – | –
6 | CCCC(=O)N[C@@H](CSCCOC(=O)c1ccccc1)C(=O)N[C@@H](CCN)C(=O)N[C@H](C(=O)N[C@@H](CCN)C(=O)N[C@H]1CCNC(=O)[C@H]([C@@H](C)O)NC(=O)[C@H](CCN)NC(=O)[C@H](CCN)NC(=O)[C@H](CSCCOC(=O)c2ccccc2)NC(=O)[C@@H](Cc2ccccc2)NC(=O)[C@H](CCN)NC1=O)[C@@H](C)O [Compound 50] (Butyryl-C(Ethyl(2-OBz))[Dab]T[Dab][Dab][Dab][dF]C(Ethyl(2-OBz))[Dab][Dab]T; lactam 5-C) | >32 | 1 (≈ 0.657 µM) | 0.5 to 1 | 0.5 (≈ 0.328 µM) | 1 (≈ 0.657 µM) | 16 (≈ 10.5 µM) | 1 to 2 | – | – | – | – | – | – | – | – | – | –
7 | CC(C)C[C@@H]1NC(=O)[C@@H](Cc2ccccc2)NC(=O)[C@H](CCN)NC(=O)[C@@H](NC(=O)[C@H](CCN)NC(=O)[C@@H](NC(=O)[C@H](N)CSCCOC(=O)C2CCC2)[C@@H](C)O)CCNC(=O)[C@H]([C@@H](C)O)NC(=O)[C@H](CCN)NC(=O)[C@H](CCN)NC1=O [Compound 101] (H-[dC](X12)T[Dab][Dab][Dab][dF]L[Dab][Dab]T; lactam 4-C) | – | – | – | – | – | – | – | – | – | – | >32 | 2 (≈ 1.68 µM) | 1 (≈ 0.839 µM) | 1 (≈ 0.839 µM) | 2 (≈ 1.68 µM) | >32 | 4 (≈ 3.35 µM)
8 | CC(C)C[C@@H]1NC(=O)[C@@H](Cc2ccccc2)NC(=O)[C@H](CCN)NC(=O)[C@@H](NC(=O)[C@H](CCN)NC(=O)[C@@H](NC(=O)[C@H](N)CSCCOC(=O)c2ccc(C(C)(C)C)cc2)[C@@H](C)O)CCNC(=O)[C@H]([C@@H](C)O)NC(=O)[C@H](CCN)NC(=O)[C@H](CCN)NC1=O [Compound 104] (H-[dC](CH2CH2OBz(4-tBu))T[Dab][Dab][Dab][dF]L[Dab][Dab]T; lactam 4-C) | – | – | – | – | – | – | – | – | – | – | >32 | 4 (≈ 3.15 µM) | 2 (≈ 1.57 µM) | 2 (≈ 1.57 µM) | 2 (≈ 1.57 µM) | 2 (≈ 1.57 µM) | 4 (≈ 3.15 µM)
9 | CC(C)C[C@@H]1NC(=O)[C@@H](Cc2ccccc2)NC(=O)[C@H](CCN)NC(=O)[C@@H](NC(=O)[C@H](CCN)NC(=O)[C@@H](NC(=O)[C@H](CCN)NC(=O)[C@@H](N)CSCCOC(=O)C(C)(C)C)[C@@H](C)O)CCCCNC(=O)[C@H]([C@@H](C)O)NC(=O)[C@H](CCN)NC(=O)[C@H](CCN)NC1=O [Compound 26] (H-C(Ethyl(2-OPiv))[Dab]T[Dab]K[Dab][dF]L[Dab][Dab]T; lactam 5-C) | – | – | – | – | – | – | – | – | – | – | >32 | 16 (≈ 12.1 µM) | 0.5 (≈ 0.378 µM) | 1 (≈ 0.756 µM) | >32 | >32 | >32
